In ChEMBL document CHEMBL5108052, “Histone Deacetylase and Enhancer of Zeste Homologue 2 Dual Inhibitors Presenting a Synergistic Effect for the Treatment of Hematological Malignancies” (J Med Chem, 2022) one finds IC50, Activity and inhibition in vivo data, which are given here for 1 compound.

The target of one experiment is Histone deacetylase 5 (Homo sapiens, UniProt Q9UQL6). Briefly: Inhibition of recombinant C-terminal his fusion-tagged human HDAC5 (656 to 1122 residues) expressed in baculovirus expression system using trifluoroacetyl lysine as substrate incubated for 2 hrs by Multimode microplate reader analysis.
Sequence of Histone deacetylase 5 (Q9UQL6 whole entry, the tested form may be a part): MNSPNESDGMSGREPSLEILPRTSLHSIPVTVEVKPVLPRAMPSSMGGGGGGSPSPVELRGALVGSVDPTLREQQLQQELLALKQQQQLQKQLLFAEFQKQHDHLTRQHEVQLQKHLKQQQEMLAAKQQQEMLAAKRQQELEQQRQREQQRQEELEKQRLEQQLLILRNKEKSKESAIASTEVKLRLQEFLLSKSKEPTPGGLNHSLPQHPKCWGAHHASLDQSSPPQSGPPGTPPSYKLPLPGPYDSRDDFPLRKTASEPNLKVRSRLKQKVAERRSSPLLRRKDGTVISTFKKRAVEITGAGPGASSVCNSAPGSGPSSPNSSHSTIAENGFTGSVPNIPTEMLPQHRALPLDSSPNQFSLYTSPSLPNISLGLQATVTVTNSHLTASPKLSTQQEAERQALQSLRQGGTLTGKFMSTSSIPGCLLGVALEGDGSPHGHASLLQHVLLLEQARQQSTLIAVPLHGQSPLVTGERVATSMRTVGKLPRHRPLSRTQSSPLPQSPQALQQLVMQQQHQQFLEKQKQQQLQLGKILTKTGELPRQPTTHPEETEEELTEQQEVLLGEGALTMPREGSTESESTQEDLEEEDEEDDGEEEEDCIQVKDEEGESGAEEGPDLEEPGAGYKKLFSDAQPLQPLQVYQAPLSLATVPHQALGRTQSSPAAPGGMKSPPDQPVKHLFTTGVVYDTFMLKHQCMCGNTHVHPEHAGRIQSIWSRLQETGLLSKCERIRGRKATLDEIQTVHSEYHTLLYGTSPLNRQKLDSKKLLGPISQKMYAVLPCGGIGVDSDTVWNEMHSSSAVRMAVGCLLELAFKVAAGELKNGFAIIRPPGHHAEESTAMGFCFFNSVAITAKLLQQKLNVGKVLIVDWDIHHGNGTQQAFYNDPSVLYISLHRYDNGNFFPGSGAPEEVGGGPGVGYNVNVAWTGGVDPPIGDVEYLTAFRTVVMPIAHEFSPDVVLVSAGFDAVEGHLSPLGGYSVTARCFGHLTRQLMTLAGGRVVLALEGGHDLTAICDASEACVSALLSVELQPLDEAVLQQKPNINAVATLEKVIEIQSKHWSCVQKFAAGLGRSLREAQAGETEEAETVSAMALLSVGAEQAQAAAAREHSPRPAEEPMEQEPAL
The target in another experiment is T1, Histone deacetylase 7 (Homo sapiens, UniProt Q8WUI4).
T1 sequence (Q8WUI4 whole entry): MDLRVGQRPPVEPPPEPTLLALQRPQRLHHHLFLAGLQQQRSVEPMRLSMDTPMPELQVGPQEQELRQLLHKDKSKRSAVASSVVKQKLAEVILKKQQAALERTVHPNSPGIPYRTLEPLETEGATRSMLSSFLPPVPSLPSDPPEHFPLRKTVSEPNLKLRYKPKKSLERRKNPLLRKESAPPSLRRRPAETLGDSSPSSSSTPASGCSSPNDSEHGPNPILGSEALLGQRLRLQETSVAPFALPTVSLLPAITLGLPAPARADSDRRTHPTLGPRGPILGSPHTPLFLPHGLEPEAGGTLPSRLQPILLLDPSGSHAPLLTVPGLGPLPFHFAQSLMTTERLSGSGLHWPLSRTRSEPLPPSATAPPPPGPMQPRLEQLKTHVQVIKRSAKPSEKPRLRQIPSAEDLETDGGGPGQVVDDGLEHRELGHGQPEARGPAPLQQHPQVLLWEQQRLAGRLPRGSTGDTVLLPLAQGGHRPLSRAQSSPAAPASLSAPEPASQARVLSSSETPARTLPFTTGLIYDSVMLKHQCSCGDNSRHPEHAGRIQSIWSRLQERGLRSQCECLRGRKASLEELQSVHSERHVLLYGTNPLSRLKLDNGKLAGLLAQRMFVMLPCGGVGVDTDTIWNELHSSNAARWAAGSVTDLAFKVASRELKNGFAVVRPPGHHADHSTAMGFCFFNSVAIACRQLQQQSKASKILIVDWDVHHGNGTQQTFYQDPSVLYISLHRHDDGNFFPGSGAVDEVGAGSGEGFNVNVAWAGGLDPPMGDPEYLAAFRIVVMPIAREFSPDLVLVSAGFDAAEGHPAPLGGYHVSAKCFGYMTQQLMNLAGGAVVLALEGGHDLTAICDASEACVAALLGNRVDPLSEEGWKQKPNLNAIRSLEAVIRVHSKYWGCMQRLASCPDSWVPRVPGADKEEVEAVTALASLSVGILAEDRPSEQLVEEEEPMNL
Briefly: Inhibition of N-terminal GST-fusion tagged recombinant human HDAC7 (518 to 991 residues) expressed in insect cells using trifluoroacetyl lysine as substrate incubated for 2 hrs by Multimode microplate reader analysis.

In the next experiment the target is T2, Histone deacetylase 11 (Homo sapiens, UniProt Q96DB2).
T2 sequence (Q96DB2 whole entry): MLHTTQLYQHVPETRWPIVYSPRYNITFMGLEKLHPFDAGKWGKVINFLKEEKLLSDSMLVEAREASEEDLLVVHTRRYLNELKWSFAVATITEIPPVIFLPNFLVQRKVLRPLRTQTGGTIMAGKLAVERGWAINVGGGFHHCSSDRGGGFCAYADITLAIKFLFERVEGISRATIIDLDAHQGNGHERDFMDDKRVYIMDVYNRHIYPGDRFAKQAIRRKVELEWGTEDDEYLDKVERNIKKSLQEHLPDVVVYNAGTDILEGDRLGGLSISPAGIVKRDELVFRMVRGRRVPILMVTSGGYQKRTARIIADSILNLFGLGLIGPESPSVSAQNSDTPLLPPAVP
Briefly: Inhibition of N-terminal Strep2-tagged recombinant His-tagged human HDAC11 (1 to 347 residues) using trifluoroacetyl lysine as substrate incubated for 2 hrs by Multimode microplate reader analysis.

In experiment [1] the test system is MV4-11. In words: Induction of apoptosis in human MV4-11 cells assessed as necrotic cells at 0.1 uM measured after 48 hrs by Annexin V/7-AAD-dual staining based flow cytometric analysis (reference value: 0.3 %). The class given is functional. A general note: Flow cytometry measures light scatter and fluorescence of single cells or particles in a stream.
Experiment [2] relates to MV4-11. Briefly: Induction of apoptosis in human MV4-11 cells assessed as early apoptotic cells at 0.4 uM measured after 48 hrs by Annexin V/7-AAD-dual staining based flow cytometric analysis (reference value: 2.2 %). The class given is functional.
The test system of experiment [3] is MV4-11. Briefly: Induction of mitochondrial membrane potential in human MV4-11 cells assessed as reduction in red fluorescence intensity at 0.1 uM measured after 48 hrs by JC1 staining-based flow cytometry analysis (reference value: 98.8%). More on the design: scale not given: the % may be the effect or the level left. The class given is functional.
In experiment [4] the test system is MV4-11. In words: Antitumor activity against human MV4-11 cells xenografted in BALB/c nude mouse assessed as tumor growth inhibition at 50 mg/kg, ip administered for 20 days in presence of by vernier caliper analysis. The class given is functional. As to conditions: MV4-11, 480 h, time 20 day, read-out: TGI. (In general: In xenograft studies the graft and the host belong to different species.)

The structures appear in SMILES notation.

Broadly, the IC50 is the concentration needed to halve the response being measured. With `Cc1cc(C)c(CNC(=O)c2cc(-c3ccc(N4CCN(c5ncc(C(=O)NO)cn5)CC4)nc3)cc3c2cnn3C(C)C)c(=O)[nH]1`, the half-inhibitory concentration (IC50) on Histone deacetylase 5 is 2.86 µM; on Histone deacetylase 7, 8.19 µM; at Histone deacetylase 11, 2.56 µM. Also, the Activity in the experiment on MV4-11 [1] worked out at 1.9%; in the experiment on MV4-11 [2], 23.3%; in the experiment on MV4-11 [3] it was 92.9%. In addition, in the experiment with MV4-11 [4], the inhibition in vivo at 50 mg/kg stood at 65.7%.
